The text below walks through data of patent US9718828B2 (MERCK SHARP & DOHME CORP., priority 2011, dated 2017).

Where a name gives a salt, the structure may show the parent alone.

In the first assay the target is Btk enzyme (His-Btk) (Homo sapiens (Human), UniProt Q06187). Description: Btk enzyme activity, IMAP fluorescence polarization assay (Assay Method A).
Btk enzyme (His-Btk), sequence (Q06187 whole entry): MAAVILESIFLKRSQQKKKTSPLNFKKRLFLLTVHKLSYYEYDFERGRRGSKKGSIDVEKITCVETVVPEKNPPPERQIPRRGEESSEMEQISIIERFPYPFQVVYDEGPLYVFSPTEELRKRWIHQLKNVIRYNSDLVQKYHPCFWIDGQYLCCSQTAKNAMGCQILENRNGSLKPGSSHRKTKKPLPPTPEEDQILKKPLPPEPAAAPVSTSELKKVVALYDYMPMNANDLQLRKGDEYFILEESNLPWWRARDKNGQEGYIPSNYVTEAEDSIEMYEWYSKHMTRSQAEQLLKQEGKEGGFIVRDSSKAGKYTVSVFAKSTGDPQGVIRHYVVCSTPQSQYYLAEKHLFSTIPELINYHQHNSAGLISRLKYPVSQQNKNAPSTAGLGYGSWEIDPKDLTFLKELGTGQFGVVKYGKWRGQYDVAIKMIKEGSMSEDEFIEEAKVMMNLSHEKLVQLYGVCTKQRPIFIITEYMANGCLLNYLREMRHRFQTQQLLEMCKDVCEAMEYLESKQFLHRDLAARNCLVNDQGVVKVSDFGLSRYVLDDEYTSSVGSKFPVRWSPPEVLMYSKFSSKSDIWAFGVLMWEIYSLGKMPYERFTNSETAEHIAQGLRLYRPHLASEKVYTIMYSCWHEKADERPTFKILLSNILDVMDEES
Settings: not given
(In general: Polarisation of emitted light reports the rotation of a fluorescent probe.)
Usually EC50 stands for the concentration that produces a half-maximal response. As to `CC(C)(C#N)C(=O)N1CCC[C@@H](c2nc(-c3ccc(C(=O)Nc4ccccn4)cc3)c3c(N)nccn23)C1` [Example 108, (R)-4-(8-amino-3-(1-(2-cyano-2-methylpropanoyl)piperidin-3-yl)imidazo[1,5-a]pyrazin-1-yl)-N-(pyridin-2-yl)benzamide], the EC50 was in the range of 10 to 100 nM.

In turn, `CC1(C(=O)N2CCC[C@@H](c3nc(-c4ccc(C(=O)Nc5cc(C#N)ccn5)cc4)c4c(N)nccn34)C2)COC1` [Example 99, (R)-4-(8-amino-3-(1-(3-methyloxetane-3 carbonyl)piperidin-3-yl)imidazo[1,5-a]pyrazin-1-yl)-N-(4-cyanopyridin-2-yl)benzamide] returned an EC50 of less than 10 nM.

In the case of `NCCOCCOCCOCCOCCC(=O)N1CCC[C@@H](c2nc(-c3ccc(C(=O)Nc4cc(C(F)(F)F)ccn4)cc3)c3c(N)nccn23)C1` [Example 85, (R)-4-(8-amino-3-(1-(1-amino-3,6,9,12-tetraoxapentadecane)piperidin-3-yl)imidazo[1,5-a]pyrazin-1-yl)-N-(4-(trifluoromethyl)pyridin-2-yl)benzamide], the EC50 was less than 10 nM. Same read-out and setting: the figure for `COCCC(=O)N1CCC[C@@H](c2nc(-c3ccc(C(=O)Nc4ccccn4)c(C)c3)c3c(N)nccn23)C1` [Example 286, (R)-4-(8-amino-3-(1-(3-methoxypropanoyl)piperidin-3-yl)imidazo[1,5-a]pyrazin-1-yl)-2-methyl-N-(pyridin-2-yl)benzamide, TFA salt] is 10 to 100 nM; for `CC(C)(O)CC(=O)N1CCC[C@@H](c2nc(-c3ccc(C(=O)Nc4cc(C(F)(F)F)ccn4)cc3)c3c(N)nccn23)C1` [Example 71, (R)-4-(8-amino-3-(1-(3-hydroxy-3-methylbutanoyl)piperidin-3-yl)imidazo[1,5-a]pyrazin-1-yl)-N-(4-(trifluoromethyl)pyridin-2-yl)benzamide] it is less than 10 nM. As to `Nc1nccn2c([C@@H]3CCCN(C=O)C3)nc(-c3ccc(C(=O)Nc4ccccn4)cc3)c12` [Example 95, (R)-4-(8-amino-3-(1-formylpiperidin-3-yl)imidazo[1,5-a]pyrazin-1-yl)-N-(pyridin-2-yl)benzamide], the EC50 is 10 to 100 nM. Same read-out and setting: the figure for `COCC1(C(=O)N2CCC[C@@H](n3nc(-c4ccc(C(=O)Nc5cc(C(F)(F)F)ccn5)cc4)c4c(N)ncnc43)C2)CCC1` [Example 272, (R)-4-(4-amino-1-(1-(1-(methoxymethyl)cyclobutanecarbonyl)piperidin-3-yl)-1H-pyrazolo[3,4-d]pyrimidin-3-yl)-N-(4-(trifluoromethyl)pyridin-2-yl)benzamide] is 10 to 100 nM; for `CC1CC1C(=O)N1CCC[C@@H](c2nc(-c3ccc(C(=O)Nc4cc(C5CC5)ccn4)cc3)c3c(N)nccn23)C1` (stereo partly drawn) [Example 62, 4-(8-amino-3-((3R)-1-(2-methylcyclopropanecarbonyl)piperidin-3-yl)imidazo[1,5-a]pyrazin-1-yl)-N-(4-cyclopropylpyridin-2-yl)benzamide] it is less than 10 nM. Still for that read-out and setting: the figure for `CC1(C(=O)N2CC[C@@H](c3nc(-c4ccc(C(=O)Nc5ccccn5)cc4)c4c(N)nccn34)C2)COC1` [Example 126, (R)-4-(8-amino-3-(1-(3-methyloxetane-3-carbonyl)pyrrolidin-3-yl)imidazo[1,5-a]pyrazin-1-yl)-N-(pyridin-2-yl)benzamide, TFA salt] is 100 to 1000 nM; for `Nc1nccn2c1c(-c1ccc(C(=O)Nc3ccccn3)c(F)c1)nc2[C@H]1CC[C@H](O)CC1` [Example 12, 4-(8-amino-3-((trans)-4-hydroxycyclohexyl)imidazo[1,5-a]pyrazin-1-yl)-2-fluoro-N-(pyridin-2-yl)benzamide] it is 100 to 1000 nM; for `CC(C)C(=O)N1CCC[C@@H](n2nc(-c3ccc(C(=O)Nc4cc(C(F)(F)F)ccn4)cc3)c3c(N)ncnc32)C1` [Example 279, (R)-4-(4-amino-1-(1-isobutyrylpiperidin-3-yl)-1H-pyrazolo[3,4-d]pyrimidin-3-yl)-N-(4-(trifluoromethyl)pyridin-2-yl)benzamide] it is 10 to 100 nM. The same measure, in the same setting: the figure for `Nc1nccn2c([C@@H]3CCCN(CCc4ccccc4)C3)nc(-c3ccc(C(=O)Nc4ccccn4)cc3)c12` [Example 134, (R)-4-(8-amino-3-(1-phenethylpiperidin-3-yl)imidazo[1,5-a]pyrazin-1-yl)-N-(pyridin-2-yl)benzamide, TFA salt] is 10 to 100 nM; for `CN(C)CCCC(=O)N1CCC[C@@H](c2nc(-c3ccc(C(=O)Nc4ccccn4)cc3)c3c(N)nccn23)C1` [Example 51, (R)-4-(8-amino-3-(1-(4-(dimethylamino)butanoyl)piperi-din-3-yl)imidazo[1,5-a]pyrazin-1-yl)-N-(pyridin-2-yl)benzamide] it is 10 to 100 nM.

Still in this assay, the particulars now being: read-out: EC50 Btk activity values - Assay Method A; IMAP-FP, 60 min pre-incubation, 5 μM ATP; class 100-1000 is given as ≧100 nM-<1 μM.
On to `CCc1ccnc(NC(=O)c2ccc(-c3nc([C@H]4CC[C@H](O)CC4)n4ccnc(N)c34)cc2)c1` [Example 19, 4-(8-amino-3-((trans)-4-hydroxycyclohexyl)imidazo[1,5-a]pyrazin-1-yl)-N-(4-ethylpyridin-2-yl)benzamide], for which the EC50 was less than 10 nM. Same read-out and setting: the figure for `CCc1cnc(NC(=O)c2ccc(-c3nc([C@H]4CC[C@H](O)CC4)n4ccnc(N)c34)cc2)s1` [Example 4, 4-(8-amino-3-((trans)-4-hydroxycyclohexyl)imidazo[1,5-a]pyrazin-1-yl)-N-(5-ethylthiazol-2-yl)benzamide] is less than 10 nM; for `CSCCC(=O)N1C[C@H](c2nc(-c3ccc(C(=O)Nc4cc(C(F)(F)F)ccn4)cc3)c3c(N)nccn23)CC[C@@H]1C` (relative stereo) [Example 195, 4-(8-amino-3-((cis)-6-methyl-1-(3-(methylthio)propanoyl)piperidin-3-yl)imidazo[1,5-a]pyrazin-1-yl)-N-(4-(trifluoromethyl)pyridin-2-yl)benzamide, TFA salt] it is less than 10 nM.

Regarding `Nc1ncc(/C=C/c2ccccc2)n2c(C3CCOCC3)nc(-c3ccc(C(=O)Nc4ccccn4)cc3)c12` [Example 313, (E)-4-(8-amino-5-styryl-3-(tetrahydro-2H-pyran-4-yl)imidazo[1,5-a]pyrazin-1-yl)-N-(pyridin-2-yl)benzamide], the EC50 was less than 10 nM.

Regarding `Nc1ncnc2c1c(-c1ccc(C(=O)Nc3cc(C(F)(F)F)ccn3)cc1)nn2[C@@H]1CCCN(C(=O)C2CC2)C1` [Example 269, (R)-4-(4-amino-1-(1-(cyclopropanecarbonyl)piperidin-3-yl)-1H-pyrazolo[3,4-d]pyrimidin-3-yl)-N-(4-(trifluoromethyl)pyridin-2-yl)benzamide], the EC50 is less than 10 nM. Still for that read-out and setting: the figure for `Nc1nccn2c([C@@H]3CCC[C@@H](NC(=O)C4CCCO4)C3)nc(-c3ccc(C(=O)Nc4cc(C(F)(F)F)ccn4)cc3)c12` (relative stereo) [Example 169, N-((trans)-3-(8-amino-1-(4-(4-(trifluoromethyl)pyridin-2-ylcarbamoyl)phenyl)imidazo [1,5-a]pyrazin-3-yl)cyclohexyl)tetrahydrofuran-2-carboxamide] is less than 10 nM; for `CC(C)C(=O)N1C[C@H](c2nc(-c3ccc(C(=O)Nc4ccccn4)cc3)c3c(N)nccn23)CC[C@@H]1C` (relative stereo) [Example 205, 4-(8-amino-3-((cis)-1-isobutyryl-6-methylpiperidin-3-yl)imidazo[1,5-a]pyrazin-1-yl)-N-(pyridin-2-yl)benzamide, TFA salt] it is less than 10 nM. Same read-out and setting: the figure for `Cc1nnc(C(=O)N2CCC[C@@H](c3nc(-c4ccc(C(=O)Nc5cc(C6CC6)ccn5)cc4)c4c(N)nccn34)C2)o1` [Example 116, (R)-4-(8-amino-3-(1-(5-methyl-1,3,4-oxadiazole-2-carbonyl)piperidin-3-yl)imidazo[1,5-a]pyrazin-1-yl)-N-(4-cyclopropylpyridin-2-yl)benzamide] is less than 10 nM; for `CCOCCC(=O)N1C[C@H](c2nc(-c3ccc(C(=O)Nc4cc(C(F)(F)F)ccn4)cc3)c3c(N)nccn23)CC[C@@H]1C` (relative stereo) [Example 189, 4-(8-amino-3-((cis)-1-(3-ethoxypropanoyl)-6-methylpiperidin-3-yl)imidazo[1,5-a]pyrazin-1-yl)-N-(4-(trifluoromethyl)pyridin-2-yl)benzamide, TFA salt] it is less than 10 nM; for `C=Cc1cnc(N)c2c(-c3ccc(C(=O)Nc4cc(C(F)(F)F)ccn4)cc3)nc([C@@H]3CCCN(C(=O)C4(C)COC4)C3)n12` [Example 302, (R)-4-(8-amino-3-(1-(3-methyloxetane-3-carbonyl)piperidin-3-yl)-5-vinylimidazo[1,5-a]pyrazin-1-yl)-N-(4-(trifluoromethyl)pyridin-2-yl)benzamide] it is less than 10 nM. Same read-out and setting: the figure for `CCCc1ccnc(NC(=O)c2ccc(-c3nc(C4CCOCC4)n4c(Cl)cnc(N)c34)cc2)c1` [Example 298, 4-(8-amino-5-chloro-3-(tetrahydro-2H-pyran-4-yl)imidazo[1,5-a]pyrazin-1-yl)-N-(4-propylpyridin-2-yl)benzamide] is less than 10 nM. For `COCCC(=O)N[C@@H]1CCC[C@@H](c2nc(-c3ccc(C(=O)Nc4cc(C(F)(F)F)ccn4)cc3)c3c(N)nccn23)C1` (relative stereo) [Example 166, 4-(8-amino-3-((trans)-3-(3-methoxypropanamido)cyclohexyl)imidazo[1,5-a]pyrazin-1-yl)-N-(4-(trifluoromethyl)pyridin-2-yl)benzamide], the EC50 is less than 10 nM. On to `COCCC(=O)N1CCC[C@@H](c2nc(-c3ccc(C(=O)Nc4cc(C(F)(F)F)ccn4)cc3)c3c(N)ncc(/C=C/c4ccccc4)n23)C1` [Example 310, (R,E)-4-(8-amino-3-(1-(3-methoxypropanoyl)piperidin-3-yl)-5-styrylimidazo[1,5-a]pyrazin-1-yl)-N-(4-(trifluoromethyl)pyridin-2-yl)benzamide], for which the EC50 was less than 10 nM. Still for that read-out and setting: the figure for `Nc1nccn2c(N3CCCC(C(=O)N[C@@H]4CCOC4)C3)nc(-c3ccc(C(=O)Nc4cc(C(F)(F)F)ccn4)cc3)c12` (stereo partly drawn) [Example 238, 1-(8-amino-1-(4-(4-(trifluoromethyl)pyridin-2-ylcarbamoyl)phenyl)imidazo[1,5-a]pyrazin-3-yl)-N-((R)-tetrahydrofuran-3-yl)piperidine-3-carboxamide, TFA salt] is less than 10 nM.
